PMC3638593, “1,4-dihydroxy-2-naphthoic Acid Induces Apoptosis in Human Keratinocyte: Potential Application for Psoriasis Treatment” (Evidence-based Complementary and Alternative Medicine : eCAM, 2013)
Values joined by “and” are separate entries in the source; they are usually repeats but may differ in a detail not shown here. Equal entries are not always repeated. Where two headings read alike, the source gives them in different places.

Legend:
Format in all cases: cell-based, human
HaCaT cells [1] = experiment: Annexin V/propidium iodide staining, flow cytometry; settings: for viability at 30 µM / viability at 60 µM / viability at 120 µM / viability at 240 µM: Homo sapiens, HaCaT, read-out: viable cells (FITC−/PI−, lower left)
Protocol: After DHNA treatment, HaCaT cells were resuspended in annexin V binding buffer (10 mM HEPES, 140 mM NaCl, and 2.5 mM CaCl2, pH 7.4) and then incubated with FITC-conjugated annexin V (Biosource International, Inc., USA), and 0.5 μg/mL propidium iodide (PI) for 15 min at room temperature in the dark. Cells were analyzed on a FACSCanto flow cytometer (BD Biosciences, San Jose, CA, USA) immediately and then analyzed using WinMDI 2.9 (developed by Dr. J. Trotter, Scripps Institute, La Jolla, CA, USA). The total number of early (FITC+/PI−) and late (FITC+/PI+) apoptotic cells was assessed. In another experiment, HaCaT cells were preincubated with 40 μM pan-caspase inhibitor Z-VAD-FMK (BD Pharmingen, San Diego, CA, USA) for 1 h before exposure to DHNA.

[2] = tested on: IL-1α release from NCTC 2544 cells; experiment: IL-1α release assay (ELISA)
Protocol: NCTC 2544 cells were seeded and treated with various concentrations of DHNA or dithranol for 72 h. After incubation, the microplate was centrifuged and conditioned medium was collected to determine the extracellular IL-1α (IL-1α release) using an IL-1α ELISA kit (Diaclone Research, France). All other steps were then according to the manufacturer's protocol. Results were expressed in pg/mL.

HaCaT cells [3] = experiment: JC-1 staining, mitochondrial membrane potential
Protocol: After DHNA treatment, HaCaT cells were harvested and washed with PBS. Cells were then incubated in 1.5 μM JC-1 (5,5′,6,6′-tetrachloro-1,1′,3,3′-tetraethylbenzimidazolylcarbocyanine iodide, Molecular Probes) in PBS at 37°C for 15 min in the dark. Thereafter cells were washed, resuspended in PBS and then immediately analyzed on the FACSCanto flow cytometer. If mitochondrial membrane potential (MMP) depolarizes, JC-1 becomes a monomer and emits green fluorescence; when MMP polarizes, JC-1 becomes a polymer and emits red fluorescence. It indicates mitochondria depolarization by a decrease in red/green fluorescence intensity ratio.

HaCaT cells [4] = experiment: TUNEL assay, flow cytometry; settings: 24 h
Protocol: After DHNA treatment, HaCaT cells were collected and washed and subsequent steps were following the protocol of In Situ Cell Death Detection kit, Fluorescein (Roche Applied Science). Fluorescein-labeled DNA strand breaks were detected by flow cytometry. The percentage of hypodiploid (fragmented) nuclei reflecting relative proportion of apoptotic cells was analyzed by WinMDI 2.9.

[5] = tested on: AIF and endoG in HaCaT cells; experiment: Immunofluorescence staining of AIF and endoG; settings: 240 μM (49.01 μg/mL), 24 h
Protocol: HaCaT cells were first seeded on cover-slipped 6 well plates. After DHNA treatment, cells were washed three times with PBS and fixed in 1 : 1 acetone/methanol at −20°C for 10 min. Thereafter, cells were washed with PBS three times and then blocked for 15 min in blocking solution (1% BSA in PBS) at room temperature. After that, cells were incubated with either one of the following antibodies in blocking solution overnight at 4°C: apoptosis inducing factor, AIF or endonuclease G, and endoG. Cells were then washed with PBS three times and incubated with corresponding secondary antibody conjugated to Alexa Fluor 488 (Molecular Probes) in blocking solution in dark at room temperature for 1 h. After further washing with PBS for three times, the cover slips were then mounted on glass slides using the Vectashield mounting medium with DAPI (Vector Laboratories, Burlingame, CA). Stained cells were then visualized under the Nikon Ti-E inverted microscope (Nikon, Tokyo, Japan).

[6] = tested on: apoptosis related proteins in HaCaT cells; experiment: Western blot of apoptosis related proteins
Protocol: (§1) After DHNA treatment HaCaT cells were collected and lysed in CelLytic M Mammalian Cell Lysis/Extraction Reagent with freshly added Protease Inhibitor Cocktail for 30 min at 4°C. Cell lysate was centrifuged at 15000 g for 15 min at 4°C and supernatant was collected as whole cell lysate. Protein concentration was determined by Bio-Rad protein assay dye reagent concentrate (Bio-Rad Laboratories, Hercules, CA, USA) following the manufacturer's instructions. Whole cell lysate was denatured by boiling for 5 min in 6X SDS loading buffer (0.375 M Tris [pH 6.8], 30% glycerol, 12% SDS, 0.2% bromophenol blue and 12% β-mercaptoethanol). Equal amount of protein (10–20 μg) was then separated by 12–15% SDS-PAGE and later proteins were transferred to polyvinylidene difluoride membrane (Millipore, Billerica, MA, USA) using Trans-Blot SD semidry transfer cell (Bio-Rad Laboratories). After that, membranes were blocked with 2–5% (w/v) bovine serum albumin or nonfat dry milk in Tris-buffered Saline-Tween (TBS-T; 0.05% v/v Tween-20, 10 mM Tris [pH 7.4], 150 mM NaCl) for 1 h and subsequently incubated overnight at 4°C with different primary antibodies in TBS-T. Membrane was then washed using TBS-T and followed by incubation with corresponding horseradish peroxidase labeled second antibodies (Santa Cruz Biotechnology) in TBS-T for 1 h. After washing of membrane with TBS-T, protein bands were visualized using Immobilon Western Chemiluminescent HRP Substrate (Millipore) and autoradiography with Lumi-Film Chemiluminescent Detection Film (Roche Applied Science). Equal protein loading was monitored by β-actin antibody on the same membrane.

[7] = tested on: cell cycle related proteins in HaCaT cells; experiment: Western blot of cell cycle related proteins; settings: 12 h
Protocol: as §1

SMILES: O=C(O)c1cc(O)c2ccccc2c1O [DHNA, 1,4-dihydroxy-2-naphthoic acid]
- total apoptotic fraction (early plus late apoptotic cells) (HaCaT cells [1]; 30 μM/6.13 μg/mL, 9 h): 10.4%
- total apoptotic fraction (early plus late apoptotic cells) (HaCaT cells [1]; 30 μM/6.13 μg/mL, 24 h): 13.7%
- total apoptotic fraction (early plus late apoptotic cells) (HaCaT cells [1]; 240 μM/49.01 μg/mL, 9 h): 45.5%
- total apoptotic fraction (early plus late apoptotic cells) (HaCaT cells [1]; 240 μM/49.01 μg/mL, 24 h): 89.7%
- viability at 30 µM (HaCaT cells [1]; 9 h): 88.9%
- viability at 30 µM (HaCaT cells [1]; 24 h): 85%
- viability at 60 µM (HaCaT cells [1]; 9 h): 86.2%
- viability at 60 µM (HaCaT cells [1]; 24 h): 77.5%
- viability at 120 µM (HaCaT cells [1]; 9 h): 81.8%
- viability at 120 µM (HaCaT cells [1]; 24 h): 50.2%
- viability at 240 µM (HaCaT cells [1]; 9 h): 44.3%
- viability at 240 µM (HaCaT cells [1]; 24 h): 8.8%
- IL-1α release at IC50 on NCTC 2544 keratinocytes ([2]; 46.80 μM or 9.56 μg/mL, 72 h): no significant IL-1α was released
- higher concentration needed for IL-1α release than dithranol ([2]; NCTC 2544, 72 h, DHNA versus dithranol): ~ 30 times
- concentration at which IL-1α release is significantly induced ([2]; NCTC 2544, 72 h, versus vehicle control): 60 μM and 12.25 μg/mL
- MMP (red/green JC-1 fluorescence ratio) compared with vehicle control (HaCaT cells [3]; 30 μM/6.13 μg/mL, 24 h): 103.3%
- MMP (red/green JC-1 fluorescence ratio) compared with vehicle control (HaCaT cells [3]; 30 μM/6.13 μg/mL, 48 h): 95.5%
- MMP (red/green JC-1 fluorescence ratio) compared with vehicle control (HaCaT cells [3]; 240 μM/49.01 μg/mL, 24 h): 35.4%
- MMP (red/green JC-1 fluorescence ratio) compared with vehicle control (HaCaT cells [3]; 240 μM/49.01 μg/mL, 48 h): 29.2%
- TUNEL positive cells (HaCaT cells [4]; 30 μM/6.13 μg/mL): 15.8%
- TUNEL positive cells (HaCaT cells [4]; 240 μM/49.01 μg/mL): 92.7%
- localization of AIF and endoG [5]: translocated to the nucleus
- Bid cleavage ([6]; 240 μM (49.01 μg/mL), 12 h): not cleaved
- Fas receptor and active form of caspase-3/7/8 ([6]; 240 μM (49.01 μg/mL), 12 h): upregulated
- PARP cleavage ([6]; 240 μM (49.01 μg/mL), 12 h): induced PARP cleavage
- active form of caspase-9 ([6]; 240 μM (49.01 μg/mL), 12 h): no active form of caspase-9 was found
- procaspase-8 level ([6]; 240 μM (49.01 μg/mL), 12 h): decreased
- expression levels of Bcl-2, Bcl-xL, Bid, and FADD ([6]; 12 h): no significant changes
- activated caspase-9 and cleaved Bid ([6]; 24 h): could then be detected
- active form of Cdk2 (Thr160 phosphorylated, 33 kDa) ([7]; 240 μM (49.01 μg/mL)): no visible change
- inactive form of Cdk2 (Thr14 and Tyr15 phosphorylated, 34 kDa) ([7]; 240 μM (49.01 μg/mL)): increased
- level of Cyclin A/D1/D3 and Cdk4 ([7]; 240 μM (49.01 μg/mL)): decreasing
- expression level of p27 and Cdk6 [7]: remains unchanged
- expression of cyclin dependent kinase inhibitor p21 [7]: dose-dependent increase
